Read-outs that look alike come from different tables or passages of the source.
Tests used:
hNSC = assay: MMP assay in human neural stem cells (hNSC); format: cell-based; details: Homo sapiens, Neural stem cell, 1 h, read-out: hNSC IC50 (MMP)
HepG2 cells [1] = assay: ROS-Glo hydrogen peroxide (ROS) assay; format: cell-based, human
HepG2 cells [2] = details: cited from earlier work
[3] = system: HeLa cells expressing YFP-Parkin; assay: Parkin translocation assay; format: cell-based, human
[4] = system: Caenorhabditis elegans strain PE255; assay: In vivo C. elegans ATP status assay; details: for minimal effective concentration: Caenorhabditis elegans, read-out: LEC LUM: lowest effect concentration for luminescence, a measure of nematode ATP content
[5] = system: isolated rat liver mitochondria; assay: Oxygen consumption, Clark-type oxygen electrode; format: biochemical
[6] = system: Nrf2/ARE (ARE-bla HepG2 cells); assay: ARE β-lactamase reporter gene assay; format: cell-based, human
[7] = system: Caenorhabditis elegans (Bristol N2); assay: C. elegans larval development and growth assay; details: for minimal effective concentration: Caenorhabditis elegans, read-out: LEC EXT: lowest effect concentration for extinction, a measure of nematode size
HepG2 cells [8] = assay: cells; details: Homo sapiens; for Emax: HepG2, read-out: MMP assays efficacy (%) HepG2
rat primary hepatocytes [9] = system: rat primary hepatocytes
rat primary hepatocytes [10] = assay: MMP assay in rat primary hepatocytes; details: Rattus norvegicus, Hepatocyte
[11] = system: Caenorhabditis elegans strain PE255; details: PE255 [sur-5::luc+::gfp; rol-6(su1006)], Caenorhabditis elegans, in vivo
HepG2 cells [12] = assay: Intracellular ATP content (cell viability) assay; format: cell-based, human; details: Homo sapiens, HepG2, 40 h
[13] = system: p53 (p53-bla HCT-116 cells); assay: p53 β-lactamase reporter gene assay; format: cell-based, human; details: 16 h incubation; mean±SD of three experiments
[14] = system: mitochondrial respiratory chain complex V; format: biochemical, rat
[15] = biological target: T1, mitochondrial respiratory chain complex II (Rattus norvegicus, UniProt P21913+Q641Z9+Q6PCT8+Q920L2); assay: Respiratory chain complex II activity; format: biochemical; details: tested up to 100μM
T1 construct: Submitochondrial particles were prepared by subjecting the intact rat mitochondria, isolated as described above, to three successive freeze–thaw cycles; from tissue; host or cells: rat liver mitochondria (submitochondrial particles)
T1 sequence (Q920L2 35-656): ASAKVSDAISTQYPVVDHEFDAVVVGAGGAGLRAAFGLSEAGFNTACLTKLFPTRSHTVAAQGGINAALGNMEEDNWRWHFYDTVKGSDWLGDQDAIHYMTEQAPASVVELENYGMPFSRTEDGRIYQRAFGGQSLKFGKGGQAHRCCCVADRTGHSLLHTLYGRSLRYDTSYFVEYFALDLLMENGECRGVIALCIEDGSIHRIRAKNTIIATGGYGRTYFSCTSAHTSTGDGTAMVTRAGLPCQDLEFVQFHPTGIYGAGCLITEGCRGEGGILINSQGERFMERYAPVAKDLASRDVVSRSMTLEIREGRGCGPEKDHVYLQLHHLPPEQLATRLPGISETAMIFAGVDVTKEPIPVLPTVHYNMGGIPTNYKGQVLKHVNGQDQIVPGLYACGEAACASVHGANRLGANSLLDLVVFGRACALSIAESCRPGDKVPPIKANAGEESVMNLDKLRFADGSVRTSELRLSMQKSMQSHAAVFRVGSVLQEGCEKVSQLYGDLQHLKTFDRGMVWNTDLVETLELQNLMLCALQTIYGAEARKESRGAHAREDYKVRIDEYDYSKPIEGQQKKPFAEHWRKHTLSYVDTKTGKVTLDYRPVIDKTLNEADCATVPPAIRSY
T1 sequence (P21913 31-282): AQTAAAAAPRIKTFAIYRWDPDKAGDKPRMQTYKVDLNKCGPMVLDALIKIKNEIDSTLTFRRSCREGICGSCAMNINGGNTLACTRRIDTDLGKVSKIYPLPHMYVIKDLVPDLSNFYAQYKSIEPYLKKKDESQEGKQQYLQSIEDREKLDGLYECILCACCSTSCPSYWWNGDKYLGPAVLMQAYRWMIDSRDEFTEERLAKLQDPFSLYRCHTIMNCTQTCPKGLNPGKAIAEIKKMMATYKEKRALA
T1 sequence (Q641Z9 1-169): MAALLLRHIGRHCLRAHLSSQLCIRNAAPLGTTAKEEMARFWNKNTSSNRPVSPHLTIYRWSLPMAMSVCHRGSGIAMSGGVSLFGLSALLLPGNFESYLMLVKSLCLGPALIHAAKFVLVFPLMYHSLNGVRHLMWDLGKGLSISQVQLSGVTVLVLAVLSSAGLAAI
T1 sequence (Q6PCT8 57-159): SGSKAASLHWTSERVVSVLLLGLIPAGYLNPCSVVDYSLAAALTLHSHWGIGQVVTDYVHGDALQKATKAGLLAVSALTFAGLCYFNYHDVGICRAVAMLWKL

[16] = system: mitochondrial respiratory chain complex III; format: biochemical, rat
[17] = system: mitochondrial respiratory chain complex I; format: biochemical, rat; details: at 100μM
[18] = system: mitochondrial respiratory chain complex IV; format: biochemical, rat
[19] = system: Caenorhabditis elegans (Bristol N2); details: Bristol N2 (wild type), Caenorhabditis elegans, in vivo
[20] = HepG2, 1 h, read-out: HepG2 IC50 Galactose (MMP)
[21] = HepG2, 1 h, read-out: HepG2 IC50 Glucose (MMP)
[22] = HepG2, read-out: MMP assays IC50 (µM) HepG2
[23] = 1 h, read-out: Rat hepatocytes IC50 (MMP)
[24] = read-out: MMP assays IC50 (µM) Rat Hepatocytes
[25] = read-out: ATP (HepG2, galactose) IC50
[26] = read-out: ATP (HepG2, glucose) IC50

O=C1c2c(O)ccc([N+](=O)[O-])c2C(=O)c2c([N+](=O)[O-])ccc(O)c21 [1,8-Dihydroxy-4,5-dinitroanthraquinone]
IC50 (hNSC): 3000 nM | EC50 (HepG2 cells [1]; Homo sapiens, HepG2, 2 h, read-out: ROS (HepG2) EC50): 34300 nM | MMP assays efficacy (%) qHTS-HepG2 (HepG2 cells [2]): -86±5% | IC50 (HepG2 cells [2]; read-out: MMP assays IC50 (µM) qHTS-HepG2): 0.07 ± 0.04 µM | Parkin recruitment [3]: Inactive | minimal effective concentration [4]: 10 µM | Potential Mechanism [5]: Uncoupler at low concentrations (0.8 - 4µM), and uncoupler + inhibitor at high concentrations (20-100 µM) | I-ADP, % of control (O2 consumption rate) ([5]; 0.16 µM): 106 (52.0) % of control | I-sub, % of control (O2 consumption rate) ([5]; 0.16 µM): 104 (16.8) % of control | II-ADP, % of control (O2 consumption rate) ([5]; 0.16 µM): 98 (75.7) % of control | II-sub, % of control (O2 consumption rate) ([5]; 0.16 µM): 98 (29.9) % of control | I-ADP, % of control (O2 consumption rate) ([5]; 0.8 µM): 102 (50.0) % of control | I-sub, % of control (O2 consumption rate) ([5]; 0.8 µM): 139 (22.3) % of control | II-ADP, % of control (O2 consumption rate) ([5]; 0.8 µM): 102 (78.8) % of control | II-sub, % of control (O2 consumption rate) ([5]; 0.8 µM): 132 (40.5) % of control | I-ADP, % of control (O2 consumption rate) ([5]; 4 µM): 119 (58.8) % of control | I-sub, % of control (O2 consumption rate) ([5]; 4 µM): 327 (52.6) % of control | II-ADP, % of control (O2 consumption rate) ([5]; 4 µM): 104 (80.3) % of control | II-sub, % of control (O2 consumption rate) ([5]; 4 µM): 206 (63.1) % of control | I-ADP, % of control (O2 consumption rate) ([5]; 20 µM): 95 (47.0) % of control | I-sub, % of control (O2 consumption rate) ([5]; 20 µM): 311 (50.0) % of control | II-ADP, % of control (O2 consumption rate) ([5]; 20 µM): 40 (30.9) % of control | II-sub, % of control (O2 consumption rate) ([5]; 20 µM): 108 (33.0) % of control | I-ADP, % of control (O2 consumption rate) ([5]; 100 µM): 35 (10.0) % of control | I-sub, % of control (O2 consumption rate) ([5]; 100 µM): 84 (10.0) % of control | II-ADP, % of control (O2 consumption rate) ([5]; 100 µM): 49 (17.8) % of control | II-sub, % of control (O2 consumption rate) ([5]; 100 µM): 141 (20.8) % of control | EC50 ([6]; Homo sapiens, HepG2, 16 h, read-out: ARE (HepG2) EC50): 2430 ± 1380 nM | minimal effective concentration [7]: 75 µM | IC50 (HepG2 cells [8]; [20]): 2.81 µM | IC50 (HepG2 cells [8]; [21]): 1.79 µM | IC50 (HepG2 cells [8]; [22]): 0.45 µM | Emax (HepG2 cells [8]): 86% | MMP assays efficacy (%) Rat Hepatocytes (rat primary hepatocytes [9]): -79±33% | Rat hepatocytes (efficacy) (MMP) (rat primary hepatocytes [9]): 16.09±6.94 ( −119±28.1 ) % | IC50 (rat primary hepatocytes [10]; [23]): 16.1 µM | IC50 (rat primary hepatocytes [10]; [24]): 5.69 ± 2.62 µM | LEC (lowest effect concentration), ATP assay [11]: ≤ 10 µM | IC50 (HepG2 cells [12]; [25]): 17000 nM | IC50 (HepG2 cells [12]; [26]): 27000 nM | p53 (HCT-116) EC50 [13]: Inactive

CC[C@@H](C(=O)[C@@H](C)[C@@H](O)[C@H](C)CCc1ccc(C)c(O)c1C(=O)O)[C@H]1O[C@](CC)([C@H]2CC[C@](O)(CC)[C@H](C)O2)C[C@@H]1C [Lasalocid sodium, reference compound]
Complex V % inhibition (activity call) [14]: Inactive | IC50 (hNSC): 540 nM | ROS (HepG2) EC50 (HepG2 cells [1]): Inactive | MMP assays efficacy (%) qHTS-HepG2 (HepG2 cells [2]): -107±4% | IC50 (HepG2 cells [2]; read-out: MMP assays IC50 (µM), qHTS-HepG2): 1.14 ± 0.07 µM | Complex II % inhibition (activity call) [15]: Inactive | Parkin recruitment [3]: Inactive | LUM: mean difference in luminescence (ATP content) relative to plate controls ([4]; 0.5 µM): -0.09691 | LUM: mean difference in luminescence (ATP content) relative to plate controls ([4]; 1 µM): 0.04489 | LUM: mean difference in luminescence (ATP content) relative to plate controls ([4]; 5 µM): 0.262 | LUM: mean difference in luminescence (ATP content) relative to plate controls ([4]; 10 µM): 0.184 | LUM: mean difference in luminescence (ATP content) relative to plate controls ([4]; 25 µM): 0.7982 | LUM: mean difference in luminescence (ATP content) relative to plate controls ([4]; 50 µM): 0.8669 | LUM: mean difference in luminescence (ATP content) relative to plate controls ([4]; 75 µM): 1.247 | LUM: mean difference in luminescence (ATP content) relative to plate controls ([4]; 100 µM): 1.4191 | effect on ATP content (in words) ([4]; 0.5–100μM): inhibited | minimal effective concentration [4]: 25 µM | Potential Mechanism [5]: Uncoupler + Inhibitor | I-ADP, % of control (O2 consumption rate) ([5]; 0.032 µM): 102 (33.0) % of control | I-sub, % of control (O2 consumption rate) ([5]; 0.032 µM): 114 (12.4) % of control | II-ADP, % of control (O2 consumption rate) ([5]; 0.032 µM): 87 (52.0) % of control | II-sub, % of control (O2 consumption rate) ([5]; 0.032 µM): 98 (20.1) % of control | I-ADP, % of control (O2 consumption rate) ([5]; 0.16 µM): 105 (34.0) % of control | I-sub, % of control (O2 consumption rate) ([5]; 0.16 µM): 118 (12.9) % of control | II-ADP, % of control (O2 consumption rate) ([5]; 0.16 µM): 72 (43.1) % of control | II-sub, % of control (O2 consumption rate) ([5]; 0.16 µM): 107 (22.1) % of control | I-ADP, % of control (O2 consumption rate) ([5]; 0.8 µM): 90 (29.2) % of control | I-sub, % of control (O2 consumption rate) ([5]; 0.8 µM): 120 (13.1) % of control | II-ADP, % of control (O2 consumption rate) ([5]; 0.8 µM): 57 (34.1) % of control | II-sub, % of control (O2 consumption rate) ([5]; 0.8 µM): 115 (23.6) % of control | I-ADP, % of control (O2 consumption rate) ([5]; 4 µM): 81 (26.3) % of control | I-sub, % of control (O2 consumption rate) ([5]; 4 µM): 164 (17.9) % of control | II-ADP, % of control (O2 consumption rate) ([5]; 4 µM): 60 (35.9) % of control | II-sub, % of control (O2 consumption rate) ([5]; 4 µM): 151 (31.2) % of control | I-ADP, % of control (O2 consumption rate) ([5]; 20 µM): 107 (34.7) % of control | I-sub, % of control (O2 consumption rate) ([5]; 20 µM): 347 (37.8) % of control | II-ADP, % of control (O2 consumption rate) ([5]; 20 µM): 48 (28.6) % of control | II-sub, % of control (O2 consumption rate) ([5]; 20 µM): 160 (33.0) % of control | I-ADP, % of control (O2 consumption rate) ([5]; 100 µM): 16 (8.1) % of control | I-sub, % of control (O2 consumption rate) ([5]; 100 µM): 32 (6.9) % of control | II-ADP, % of control (O2 consumption rate) ([5]; 100 µM): 20 (11.6) % of control | II-sub, % of control (O2 consumption rate) ([5]; 100 µM): 39 (13.7) % of control | ARE (HepG2) EC50 ([6]; 16 h incubation, mean±SD of three experiments): Inactive | EXT: mean difference in nematode size relative to plate controls ([7]; 0.5 µM): 0.01876 | EXT: mean difference in nematode size relative to plate controls ([7]; 1 µM): -0.05443 | EXT: mean difference in nematode size relative to plate controls ([7]; 5 µM): 0.2782 | EXT: mean difference in nematode size relative to plate controls ([7]; 10 µM): 0.2152 | EXT: mean difference in nematode size relative to plate controls ([7]; 25 µM): 0.9725 | EXT: mean difference in nematode size relative to plate controls ([7]; 50 µM): 1.753 | EXT: mean difference in nematode size relative to plate controls ([7]; 75 µM): 1.778 | EXT: mean difference in nematode size relative to plate controls ([7]; 100 µM): 1.712 | effect on larval growth (in words) ([7]; 0.5–100μM): inhibited | minimal effective concentration [7]: 5 µM | IC50 (HepG2 cells [8]; [20]): 1.58 µM | IC50 (HepG2 cells [8]; [21]): 1.54 µM | IC50 (HepG2 cells [8]; [22]): 1.38 µM | Emax (HepG2 cells [8]): 99% | MMP assays efficacy (%) Rat Hepatocytes (rat primary hepatocytes [9]): -105±1% | Rat hepatocytes (efficacy) (MMP) (rat primary hepatocytes [9]): 1.27±0.23 ( −95.6±2.35 ) % | Complex III % inhibition (activity call) [16]: Inactive | Complex I % inhibition [17]: 18.3±6.97 at 100μM % | Complex IV % inhibition (activity call) [18]: Inactive | IC50 (rat primary hepatocytes [10]; [23]): 1.27 µM | IC50 (rat primary hepatocytes [10]; [24]): 1.3 ± 0.29 µM | LEC (lowest effect concentration), larval growth assay [19]: ≤ 10 µM | IC50 (HepG2 cells [12]; [25]): 35400 nM | IC50 (HepG2 cells [12]; [26]): 30700 nM | p53 (HCT-116) EC50 [13]: Inactive

— PMC6112376, “Comprehensive Analyses and Prioritization of Tox21 10K Chemicals Affecting Mitochondrial Function by in-Depth Mechanistic Studies” (Environmental Health Perspectives, 2018)
